# Results taken from the supplement of paper PMC10307832.
# How the values were obtained:
# Assay in all cases: relative viability (nuclei count vs DMSO), 5 days (fraction); higher = more cells survive
# [1] = compound: CC1=NN=C(O1)C2=NN=C(C=C2)N3CCC(CC3)OC4=C(C=CC(=C4)F)Cl + CS(=O)(=O)CCNCc1ccc(-c2ccc3ncnc(Nc4ccc(OCc5cccc(F)c5)c(Cl)c4)c3c2)o1 [Lapatinib] (partner 2 µM)
# Summary of the method: (§1)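 Relative viability is defined as nuclei in treated wells over nuclei in vehicle wells. Duplicate plates were run and medians reported. Lung cancer cell lines in 1536-well plates were dosed by pin tool one day after seeding, with one drug or with a fixed anchor-drug dose plus five library-drug doses (not always all listed) in √10 steps, and nuclei were counted after 5 days.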
# Tosedostat + Dasatinib = compound: CC(C)C[C@@H](C(=O)N[C@H](C(=O)OC1CCCC1)c1ccccc1)[C@H](O)C(=O)NO [Tosedostat] + Cc1nc(Nc2ncc(C(=O)Nc3c(C)cccc3Cl)s2)cc(N2CCN(CCO)CC2)n1 [Dasatinib] (partner 0.075 µM)
# Summary of the method: as §1
# Tosedostat + Bortezomib = compound: CC(C)C[C@@H](C(=O)N[C@H](C(=O)OC1CCCC1)c1ccccc1)[C@H](O)C(=O)NO [Tosedostat] + CC(C)C[C@H](NC(=O)[C@H](Cc1ccccc1)NC(=O)c1cnccn1)B(O)O [Bortezomib] (partner 0.002 µM)
# Summary of the method: as §1
# Tosedostat + Luminespib = compound: CC(C)C[C@@H](C(=O)N[C@H](C(=O)OC1CCCC1)c1ccccc1)[C@H](O)C(=O)NO [Tosedostat] + CCNC(=O)c1noc(-c2cc(C(C)C)c(O)cc2O)c1-c1ccc(CN2CCOCC2)cc1 [Luminespib] (partner 0.01 µM)
# Summary of the method: as §1
cell line,measurement,setting,value
UMC-11,relative viability,[1]; first compound 0.253 µM,0.641
same,relative viability,[1]; first compound 0.8 µM,0.645
same,relative viability,[1]; first compound 2.53 µM,0.777
same,relative viability,[1]; first compound 8 µM,0.595
same,relative viability,Tosedostat + Dasatinib; first compound 0.02 µM,0.499
same,relative viability,Tosedostat + Dasatinib; first compound 0.06325 µM,0.454
same,relative viability,Tosedostat + Dasatinib; first compound 0.2 µM,0.453
same,relative viability,Tosedostat + Dasatinib; first compound 0.6325 µM,0.448
same,relative viability,Tosedostat + Dasatinib; first compound 2 µM,0.504
same,relative viability,Tosedostat + Bortezomib; first compound 0.02 µM,0.689
same,relative viability,Tosedostat + Bortezomib; first compound 0.06325 µM,0.523
same,relative viability,Tosedostat + Bortezomib; first compound 0.2 µM,0.752
same,relative viability,Tosedostat + Bortezomib; first compound 0.6325 µM,0.663
same,relative viability,Tosedostat + Bortezomib; first compound 2 µM,0.81
same,relative viability,Tosedostat + Luminespib; first compound 0.02 µM,1.01
same,relative viability,Tosedostat + Luminespib; first compound 0.06325 µM,0.999
same,relative viability,Tosedostat + Luminespib; first compound 0.2 µM,1.03
same,relative viability,Tosedostat + Luminespib; first compound 0.6325 µM,0.977
same,relative viability,Tosedostat + Luminespib; first compound 2 µM,1.12
